{"source": "paper PMC10709440", "about": "“High-throughput ligand profile characterization in novel cell lines expressing seven heterologous insect olfactory receptors for the detection of volatile plant biomarkers” (Scientific Reports, 2023)", "key": {"Drosophila OR71a": {"target": "T1, Drosophila OR71a (Drosophila melanogaster, UniProt Q9VUK5)", "T1 construct": "expressed in transfected cells", "T1 sequence (Q9VUK5 1-378)": "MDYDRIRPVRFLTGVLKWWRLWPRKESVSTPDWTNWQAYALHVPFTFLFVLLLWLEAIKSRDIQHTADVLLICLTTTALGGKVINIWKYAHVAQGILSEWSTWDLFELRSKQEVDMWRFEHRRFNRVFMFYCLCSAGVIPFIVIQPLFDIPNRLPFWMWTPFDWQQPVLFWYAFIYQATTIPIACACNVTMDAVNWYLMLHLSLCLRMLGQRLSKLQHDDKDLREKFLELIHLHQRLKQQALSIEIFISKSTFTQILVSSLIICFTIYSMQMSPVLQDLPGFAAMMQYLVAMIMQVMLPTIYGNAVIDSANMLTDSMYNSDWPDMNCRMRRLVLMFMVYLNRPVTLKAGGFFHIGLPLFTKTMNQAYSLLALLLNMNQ", "T1 sequence (Q9VNB5 1-486 partner)": "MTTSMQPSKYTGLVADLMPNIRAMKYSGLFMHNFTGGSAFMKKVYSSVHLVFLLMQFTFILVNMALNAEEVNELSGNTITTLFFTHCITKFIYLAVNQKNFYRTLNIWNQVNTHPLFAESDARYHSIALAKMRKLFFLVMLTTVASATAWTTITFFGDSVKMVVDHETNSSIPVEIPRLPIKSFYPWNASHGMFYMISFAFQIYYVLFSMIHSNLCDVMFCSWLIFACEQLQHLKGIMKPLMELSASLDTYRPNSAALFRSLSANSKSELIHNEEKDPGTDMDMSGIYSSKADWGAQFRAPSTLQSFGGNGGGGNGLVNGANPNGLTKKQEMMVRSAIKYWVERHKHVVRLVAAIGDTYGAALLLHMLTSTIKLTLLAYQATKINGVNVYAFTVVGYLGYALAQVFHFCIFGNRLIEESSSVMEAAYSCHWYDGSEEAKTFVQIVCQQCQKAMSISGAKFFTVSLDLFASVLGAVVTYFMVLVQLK", "test": "Calcium ion fluorescence (GCaMP6) assay, OR71a stable HEK293 cell line", "assay_type": "cell-based", "settings": "for Average response / OR71a response (VUAA1-normalized) at 1 μM / OR71a response (VUAA1-normalized) at 10 μM / OR71a response (VUAA1-normalized) at 100 μM: OR71a cell line; for Average response: VUAA1-normalized response, mean of biological replicates; for OR71a response (VUAA1-normalized) at 1 μM: VOC concentration 1 μM; for OR71a response (VUAA1-normalized) at 10 μM: VOC concentration 10 μM; for OR71a response (VUAA1-normalized) at 100 μM: VOC concentration 100 μM", "in_short": "(§1)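 Responses are VUAA1-normalized ΔF: each VOC-evoked calcium signal, (FMAX−F0)/F0 over 30 s after injection, divided by the same line's mean 50 µM VUAA1 response. Cells were doxycycline-induced HEK293 with GCaMP6 and the cognate Drosophila OR, in HEPES buffer pH 7.3; ligands tested 0.01–100 μM.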"}, "Drosophila OR10a": {"target": "T2, Drosophila OR10a (Drosophila melanogaster, UniProt Q9VYZ1)", "T2 construct": "expressed in transfected cells", "T2 sequence (Q9VYZ1 1-406)": "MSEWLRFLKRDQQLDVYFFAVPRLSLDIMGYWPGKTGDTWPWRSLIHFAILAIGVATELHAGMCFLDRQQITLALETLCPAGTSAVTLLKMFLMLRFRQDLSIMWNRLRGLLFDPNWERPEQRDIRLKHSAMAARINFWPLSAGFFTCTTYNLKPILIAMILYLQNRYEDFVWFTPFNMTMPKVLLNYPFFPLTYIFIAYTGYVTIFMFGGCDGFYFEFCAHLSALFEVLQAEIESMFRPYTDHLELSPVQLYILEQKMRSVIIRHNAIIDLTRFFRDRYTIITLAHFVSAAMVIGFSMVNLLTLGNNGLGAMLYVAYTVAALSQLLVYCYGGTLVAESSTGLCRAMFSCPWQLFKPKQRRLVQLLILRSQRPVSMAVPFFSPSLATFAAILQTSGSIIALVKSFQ", "T2 sequence (Q9VNB5 1-486 partner)": "T1 sequence (Q9VNB5 1-486 partner)", "test": "Calcium ion fluorescence (GCaMP6) assay, OR10a stable HEK293 cell line", "assay_type": "cell-based", "settings": "for activation at 1 µM / activation at 10 µM / activation at 100 µM: 50 μM VUAA1 = 1, responses not exceeding 0.05 considered 0; for OR10a response (VUAA1-normalized) at 1 μM / OR10a response (VUAA1-normalized) at 10 μM / OR10a response (VUAA1-normalized) at 100 μM: OR10a cell line; for OR10a response (VUAA1-normalized) at 1 μM: VOC concentration 1 μM; for OR10a response (VUAA1-normalized) at 10 μM: VOC concentration 10 μM; for OR10a response (VUAA1-normalized) at 100 μM: VOC concentration 100 μM", "in_short": "as §1"}, "[1]": {"settings": "ligand concentration 10 (unit not given), 0.05 threshold, values below shown as 0"}, "[2]": {"settings": "ligand concentration 100 (unit not given), 0.05 threshold, values below shown as 0"}, "[3]": {"settings": "100 µM, OR10a clone G5, single plate 2019.12.05"}, "[4]": {"settings": "HEK293, 1 μM VOC, read-out: OR10a Average response (VUAA1-normalized)"}, "[5]": {"settings": "HEK293, 10 μM VOC, read-out: OR10a Average response (VUAA1-normalized)"}, "[6]": {"settings": "HEK293, 100 μM VOC, read-out: OR10a Average response (VUAA1-normalized)"}, "[7]": {"settings": "ligand concentration 1 (unit not given), threshold 0.05, below shown as 0"}, "[8]": {"settings": "ligand concentration 10 (unit not given), threshold 0.05, below shown as 0"}, "[9]": {"settings": "ligand concentration 100 (unit not given), threshold 0.05, below shown as 0"}}, "note": "Read-outs that look alike come from different tables or passages of the source.", "data": [{"smiles": "CC/C=C\\CCOC(C)=O", "note": "[z3-hexenyl acetate]", "values": [{"measurement": "Average response", "setting": "Drosophila OR71a; cc. 1 µM", "value": 0.00}, {"measurement": "Average response", "setting": "Drosophila OR71a; cc. 10 µM", "value": 0.00}, {"measurement": "Average response", "setting": "Drosophila OR71a; cc. 100 µM", "value": 0.00}, {"measurement": "DF norm AVERAGE OR71a", "setting": "Drosophila OR71a; ligand concentration 1 (unit not given), 0.05 threshold, values below shown as 0", "value": 0}, {"measurement": "DF norm AVERAGE OR71a", "setting": "Drosophila OR71a; [1]", "value": 0}, {"measurement": "DF norm AVERAGE OR71a", "setting": "Drosophila OR71a; [2]", "value": 0}, {"measurement": "DF norm, all technical replicates", "setting": "Drosophila OR10a; [3]", "value": 0}, {"measurement": "DF norm, outlier technical replicates removed", "setting": "Drosophila OR10a; [3]", "value": 0}, {"measurement": "DF, outlier technical replicates removed", "setting": "Drosophila OR10a; [3]", "value": 0}, {"measurement": "DF, all technical replicates", "setting": "Drosophila OR10a; 100 µM, OR10a clone G5, single plate 2019.12.05, xc+0.1%DMSO", "value": 0}, {"measurement": "activation at 1 µM", "setting": "Drosophila OR10a; [4]", "value": 14, "unit": "%"}, {"measurement": "activation at 10 µM", "setting": "Drosophila OR10a; [5]", "value": 0, "unit": "%"}, {"measurement": "activation at 100 µM", "setting": "Drosophila OR10a; [6]", "value": 0, "unit": "%"}, {"measurement": "DF norm AVERAGE OR10a", "setting": "Drosophila OR10a; ligand concentration 1 (unit not given), […]", "value": 0.1361}, {"measurement": "DF norm AVERAGE OR10a", "setting": "Drosophila OR10a; [1]", "value": 0}, {"measurement": "DF norm AVERAGE OR10a", "setting": "Drosophila OR10a; [2]", "value": 0}]}, {"smiles": "C=C1CCC2(C(C)C)CC12", "note": "(stereo not shown) [sabinene]", "values": [{"measurement": "OR71a response (VUAA1-normalized) at 1 μM", "setting": "Drosophila OR71a", "value": 0.00}, {"measurement": "OR71a response (VUAA1-normalized) at 10 μM", "setting": "Drosophila OR71a", "value": 0.00}, {"measurement": "OR71a response (VUAA1-normalized) at 100 μM", "setting": "Drosophila OR71a", "value": 0.00}, {"measurement": "Average response", "setting": "Drosophila OR71a; cc. 1 µM", "value": 0.00}, {"measurement": "Average response", "setting": "Drosophila OR71a; cc. 10 µM", "value": 0.00}, {"measurement": "Average response", "setting": "Drosophila OR71a; cc. 100 µM", "value": 0.0235}, {"measurement": "DF norm AVERAGE OR71a", "setting": "Drosophila OR71a; [7]", "value": 0}, {"measurement": "DF norm AVERAGE OR71a", "setting": "Drosophila OR71a; [8]", "value": 0}, {"measurement": "DF norm AVERAGE OR71a", "setting": "Drosophila OR71a; [9]", "value": 0}, {"measurement": "activation at 1 µM", "setting": "Drosophila OR10a; HEK293, read-out: OR10a Average response (VUAA1-normalized), 1 μM VOC", "value": 0, "unit": "%"}, {"measurement": "activation at 10 µM", "setting": "Drosophila OR10a; HEK293, read-out: OR10a Average response (VUAA1-normalized), 10 μM VOC", "value": 0, "unit": "%"}, {"measurement": "activation at 100 µM", "setting": "Drosophila OR10a; HEK293, read-out: OR10a Average response (VUAA1-normalized), 100 μM VOC", "value": 3.23, "unit": "%"}, {"measurement": "OR10a response (VUAA1-normalized) at 1 μM", "setting": "Drosophila OR10a", "value": 0.00}, {"measurement": "OR10a response (VUAA1-normalized) at 10 μM", "setting": "Drosophila OR10a", "value": 0.00}, {"measurement": "OR10a response (VUAA1-normalized) at 100 μM", "setting": "Drosophila OR10a", "value": 0.00}, {"measurement": "DF norm AVERAGE OR10a", "setting": "Drosophila OR10a; [7]", "value": 0}, {"measurement": "DF norm AVERAGE OR10a", "setting": "Drosophila OR10a; [8]", "value": 0}, {"measurement": "DF norm AVERAGE OR10a", "setting": "Drosophila OR10a; [9]", "value": 0}]}, {"smiles": "C=CC(C)(O)CCC=C(C)C", "note": "(stereo not shown) [linalool]", "values": [{"measurement": "OR71a response (VUAA1-normalized) at 1 μM", "setting": "Drosophila OR71a", "value": 0.00}, {"measurement": "OR71a response (VUAA1-normalized) at 10 μM", "setting": "Drosophila OR71a", "value": 0.00}, {"measurement": "OR71a response (VUAA1-normalized) at 100 μM", "setting": "Drosophila OR71a", "value": 0.00}, {"measurement": "Average response", "setting": "Drosophila OR71a; cc. 1 µM", "value": 0.00}, {"measurement": "Average response", "setting": "Drosophila OR71a; cc. 10 µM", "value": 0.0443}, {"measurement": "Average response", "setting": "Drosophila OR71a; cc. 100 µM", "value": 0.0124}, {"measurement": "DF norm AVERAGE OR71a", "setting": "Drosophila OR71a; [7]", "value": 0}, {"measurement": "DF norm AVERAGE OR71a", "setting": "Drosophila OR71a; [8]", "value": 0}, {"measurement": "DF norm AVERAGE OR71a", "setting": "Drosophila OR71a; [9]", "value": 0}, {"measurement": "activation at 1 µM", "setting": "Drosophila OR10a; [4]", "value": 2, "unit": "%"}, {"measurement": "activation at 10 µM", "setting": "Drosophila OR10a; [5]", "value": 7, "unit": "%"}, {"measurement": "activation at 100 µM", "setting": "Drosophila OR10a; [6]", "value": 0, "unit": "%"}, {"measurement": "OR10a response (VUAA1-normalized) at 1 μM", "setting": "Drosophila OR10a", "value": 0.00}, {"measurement": "OR10a response (VUAA1-normalized) at 10 μM", "setting": "Drosophila OR10a", "value": 0.07}, {"measurement": "OR10a response (VUAA1-normalized) at 100 μM", "setting": "Drosophila OR10a", "value": 0.00}, {"measurement": "DF norm AVERAGE OR10a", "setting": "Drosophila OR10a; [7]", "value": 0}, {"measurement": "DF norm AVERAGE OR10a", "setting": "Drosophila OR10a; [8]", "value": 0.06934}, {"measurement": "DF norm AVERAGE OR10a", "setting": "Drosophila OR10a; [9]", "value": 0}]}]}
